Laboratory results from PMC10945480 (Journal of Medicinal Chemistry, 2024).

Tests used:
washed human platelets [1] = test: Collagen-induced platelet aggregation; assay type: cell-based; conditions: Platelet; washed human platelets, collagen (5 μg/mL)
Method in brief: (§1)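 Washed platelets from ACD-anticoagulated blood of healthy donors, stirred at 1200 rpm, 37 °C in a turbidimetric aggregometer. Aggregation triggered by U46619 or collagen, scored as maximal rise in light transmission.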

[2] = test system: human vascular endothelial EA.hy926 cells; test: Cell viability, resazurin assay, EA.hy926; conditions: EA.hy 926, 24 h, read-out: EAhy926 IC50
Method: (§2) Cells were maintained in a humidified incubator at 37 °C in 5% CO2, and cell viability was determined with the resazurin assay (Cayman Chemical, USA) after the incubation with compounds for indicated concentrations and times or DMSO as control.[72]

glioma U87 = test: Cell viability, resazurin assay, U87; conditions: Homo sapiens, 24 h, read-out: U87 IC50
Method: as §2

washed human platelets [3] = test: U46619-induced platelet aggregation; assay type: cell-based; conditions: Platelet; washed human platelets, U46619 (1 μM)
Method in brief: as §1

A549 cancer cells = test: Platelet-enhanced tumor cell proliferation; assay type: cell-based, human; conditions: A549 plus platelets, 48 h, 0.5 to 2 μM
Method: In order to examine platelet-enhanced cancer cell growth, A549 cancer cells were coincubated with platelets for 48 h.
Figure 5 Inhibitory effects of JUG derivatives 18 and 22 on tumor cell-induced platelet secretion and platelet-enhanced tumor cell proliferation. (a) Washed human platelets were coincubated with A549 cancer cells under the same conditions as described in Figure 4. Secretion of PDGF and ATP were determined with the enzyme-linked immunosorbent assay (ELISA) and bioluminescent assay, respectively. (b) A549 cancer cells were coincubated with washed human platelets at 37 °C and 5% CO2 in a cell culture incubator for 48 h. After washing with PBS, the numbers of viable cancer cells were determined by trypan blue exclusion. Data are mean ± SEM of at least three independent experiments. In (a), *P < 0.05; **P < 0.01; ***P < 0.001 as compared with vehicle control (DMSO). In (b), *P < 0.05; **P < 0.01; ***P < 0.001 as compared with A549 cells plus platelets.
A549 cells (1 × 10^4 cells/well) were seeded in a 96-well plate and coincubated with wash human platelets (1 × 10^7 cells/well) containing with 0.375% plasma for 48 h at 37 °C and 5% CO2 in a cell culture incubator. After washing with phosphate buffered saline, the numbers of viable cancer cells were determined by trypan blue exclusion.

[4] = target: purified human recombinant PDI (rPDI) (Homo sapiens, UniProt P07237); test: Recombinant PDI reductase activity (Di-E-GSSG assay)
purified human recombinant PDI (rPDI), sequence (P07237 18-508): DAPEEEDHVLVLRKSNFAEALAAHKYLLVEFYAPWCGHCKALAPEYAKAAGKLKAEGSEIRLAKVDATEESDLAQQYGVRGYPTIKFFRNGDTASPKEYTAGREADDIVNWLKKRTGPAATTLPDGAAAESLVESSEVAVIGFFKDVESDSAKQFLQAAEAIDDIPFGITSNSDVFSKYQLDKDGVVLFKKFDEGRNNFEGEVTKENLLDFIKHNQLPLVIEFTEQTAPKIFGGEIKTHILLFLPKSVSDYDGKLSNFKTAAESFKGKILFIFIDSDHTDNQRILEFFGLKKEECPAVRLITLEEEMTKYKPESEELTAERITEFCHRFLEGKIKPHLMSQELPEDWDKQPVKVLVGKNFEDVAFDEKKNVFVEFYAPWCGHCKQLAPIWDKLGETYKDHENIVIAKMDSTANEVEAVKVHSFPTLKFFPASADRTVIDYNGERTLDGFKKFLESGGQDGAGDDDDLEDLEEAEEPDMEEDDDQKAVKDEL
Method: In this assay, a nonfluorescent substrate, dieosin glutathione disulfide (Di-E-GSSG), was reduced into a fluorescent product eosin-glutathione (E-GSH) by platelet surface PDI in the presence of 5 μM dithiothreitol (DTT).

IC50 (washed human platelets [1]): 0.56 ± 0.17 µM | IC50 (glioma U87): > 20 µM | IC50 (washed human platelets [3]): 0.95 ± 0.1 µM | IC50 [4]: 1.87 ± 0.56 µM
Structure (SMILES): CC(=O)OC1O[C@H](CSC2=CC(=O)c3cccc(O)c3C2=O)[C@@H](OC(C)=O)C(OC(C)=O)[C@H]1OC(C)=O (stereo in doubt) [Compound 18, 2-(1,2,3,4-Tetra-O-acetyl-6-deoxy-6-thio-α-D-glucopyranose)-8-hydroxynaphthalene-1,4-dione]
IC50 [2]: 7.27 ± 0.08 µM | platelet-enhanced cancer cell growth (A549 cancer cells): blunted platelet-enhanced cancer cell growth
